The target in test [1] is T1, G1 APOL1 (Homo sapiens, UniProt O14791, I384M/S342G).
T1 construct: expressed in transfected cells
T1 sequence (O14791 28-398 S342G/I384M): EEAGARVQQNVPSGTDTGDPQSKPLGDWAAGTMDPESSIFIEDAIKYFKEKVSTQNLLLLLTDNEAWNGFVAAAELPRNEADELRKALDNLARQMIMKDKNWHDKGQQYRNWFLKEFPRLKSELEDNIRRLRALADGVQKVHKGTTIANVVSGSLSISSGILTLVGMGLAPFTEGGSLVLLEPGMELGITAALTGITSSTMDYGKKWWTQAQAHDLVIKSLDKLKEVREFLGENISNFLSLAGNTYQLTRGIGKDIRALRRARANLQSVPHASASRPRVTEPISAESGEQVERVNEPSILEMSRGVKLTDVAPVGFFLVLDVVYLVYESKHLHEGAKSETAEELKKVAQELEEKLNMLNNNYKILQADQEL
The test can be described thus: Acute APOL1 Thallium Assay with Inducible Stable Clones of HEK 293 Cells. Conditions: HEK 293 inducible stable clones, G1 APOL1; read-out: Thallium Assay (IC50). The format is cell-based. An outline of the steps:
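HEK293 T-Rex cells with a stable tetracycline-inducible G1 APOL1 construct (clone DC3.25) were induced with tetracycline at plating, 26000 cells per well, then incubated at 37° C. They were loaded with an AM-ester thallium-sensitive dye and stimulated with Tl+. The fluorescence rise measured Tl+ influx through APOL1 pores.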

Test [2] concerns the target T2, APOL1 G1 Protein (Homo sapiens, UniProt O14791, I384M/S342G).
T2 sequence (O14791 28-398 S342G/I384M): T1 sequence (O14791 28-398 S342G/I384M)
The experiment in a line: Trypanosoma brucei brucei Lysis Assay Using APOL1 Recombinant Protein (AlamarBlue viability). The test is classed as cell-based. Conditions: read-out: Trypanosomal Assay (IC50). The gist of the method:
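Lister 427 bloodstream-form trypanosomes seeded at 120,000 per well in phenol-red-free, serum-free medium and lysed with recombinant APOL1 variant protein. Viability read by AlamarBlue (resazurin) fluorescence. Percent viability relative to untreated wells, interpolated from a standard curve of seeded parasites.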

Where a name gives a salt, the structure may show the parent alone.

A word on the IC50: it is the midpoint of a concentration-inhibition curve. Turning to `O=C(CCc1c(-c2ccc(F)cc2)[nH]c2c(F)cc(F)cc12)NC1CCCC1=O` (stereo not drawn) [Compound 101], the IC50 in test [1] and in test [2] was less than 250 nM throughout.
With `CC(C)(C)OC(=O)NC1CCC(NC(=O)CCc2c(-c3ccc(F)cc3)[nH]c3ccc(F)cc23)C1` (stereo not drawn) [Compound 60], the IC50 in test [1] and in test [2] was greater than 1000 nM throughout.
As for `O=C(CCc1c(-c2ccc(F)cc2)[nH]c2c(F)cc(F)cc12)NC1(CO)CC(F)(F)C1` [Compound 122], the values for the concentration for half-maximal inhibition (IC50) in test [1] and in test [2] were 250 to 1000 nM and greater than 1000 nM, respectively.
The corresponding values for `O=C(CCc1c(-c2ccc(F)cc2)[nH]c2ccc(F)cc12)NCC1(O)CCC1` [Compound 64] are greater than 1000 nM and greater than 1000 nM.
The like results for `O=C(CCc1c(-c2ccc(F)cc2)[nH]c2ccc(F)cc12)NC1CCCNC1=O` (stereo not drawn) [Compound 26] were, in that order, greater than 1000 nM and greater than 1000 nM.
As for `O=C(CCc1c(-c2ccc(F)cc2)[nH]c2c(F)cc(F)cc12)N1CCC[C@H]1CO` [Compound 145], the IC50 in test [1] and in test [2] was greater than 1000 nM each time.
As for `CC(=O)NCCCc1c(-c2ccc(F)cc2)[nH]c2c(F)cc(F)cc12` [Compound 505, N-[3-[5,7-difluoro-2-(4-fluorophenyl)-1H-indol-3-yl]propyl]acetamide], the IC50 in test [1] was less than 250 nM; in test [2], 250 to 1000 nM.
The corresponding values for `Cc1csc(NC(=O)CCc2c(-c3ccc(F)cc3)[nH]c3c(F)cc(F)cc23)n1` [Compound 125] are greater than 1000 nM and greater than 1000 nM.
For the compound `N[C@H]1C[C@H](NC(=O)CCc2c(-c3ccc(F)cc3)[nH]c3ccc(F)cc23)C1` [Compound 54], the IC50 in test [1] and in test [2] was greater than 1000 nM in each case.
In the case of `NC(=O)CNC(=O)CCc1c(-c2ccc(F)cc2)[nH]c2c(F)cc(F)cc12` [Compound 111], the IC50 in test [1] and in test [2] was greater than 1000 nM throughout.
Take `O=C(CCc1c(-c2ccc(F)cc2)[nH]c2c(F)cc(F)cc12)NC1CC1(F)F` (stereo not drawn) [Compound 142]: the half-inhibitory concentration (IC50) in test [1] and in test [2] was greater than 1000 nM each time.
Turning to `O=C(CCc1c(-c2ccc(F)cc2)[nH]c2c(F)cc(F)cc12)NCc1ncco1` [Compound 153], the IC50 in test [1] and in test [2] was greater than 1000 nM in each case.
With `O=C(CCc1c(-c2ccc(F)cc2)[nH]c2c(F)cc(F)cc12)NC(CO)(CO)CO` [Compound 95], the IC50 in test [1] and in test [2] was 250 to 1000 nM in each case.
Regarding `O=C(CCc1c(-c2ccc(F)cc2)[nH]c2ccc(F)cc12)N[C@H]1C[C@@H]1c1ccccc1` [Compound 23], the IC50 in test [1] and in test [2] was greater than 1000 nM throughout.
For the compound `CC(C)(CO)NC(=O)CCc1c(-c2ccc(F)cc2)[nH]c2ccc(F)cc12` [Compound 19], the IC50 in test [1] and in test [2] was 250 to 1000 nM each time.
Take `O=C(CCc1c(-c2ccc(F)cc2)[nH]c2c(F)cc(F)cc12)NC1(CO)COC1` [Compound 126]: the IC50 in test [1] and in test [2] was 250 to 1000 nM each time.
In the case of `O=C(CCc1c(-c2ccc(F)cc2)[nH]c2c(F)cc(F)cc12)Nc1ccc[nH]c1=O` [Compound 175], the IC50 in test [1] and in test [2] was greater than 1000 nM in each case.
`O=C(CCc1c(-c2ccc(F)cc2)[nH]c2ccc(F)cc12)N[C@H]1CNC[C@@H]1O` [Compound 2, 3-[5-fluoro-2-(4-fluorophenyl)-1H-indol-3-yl]-N-[(3S,4S)-4-hydroxypyrrolidin-3-yl]propanamide hydrochloride]: the half-inhibitory concentration (IC50) in test [1] and in test [2] was greater than 1000 nM throughout.
For `O=C(CCc1c(-c2ccc(F)cc2)[nH]c2c(F)cc(F)cc12)NC1(CO)CCOC1` (stereo not drawn) [Compound 116], the IC50 in test [1] and in test [2] was greater than 1000 nM in each case.
Turning to `COCCN(C)C(=O)CCc1c(-c2ccc(F)cc2)[nH]c2c(F)cc(F)cc12` [Compound 156], the IC50 in test [1] and in test [2] was greater than 1000 nM in each case.
`CC(O)C(C)NC(=O)CCc1c(-c2ccc(F)cc2)[nH]c2ccc(F)cc12` (mixture of isomers) [Compound 35]: the half-inhibitory concentration (IC50) in test [1] and in test [2] was greater than 1000 nM in each case.

The values are drawn from US20230014907A1, “INHIBITORS OF APOL1 AND METHODS OF USING SAME” (Vertex Pharmaceuticals Incorporated, priority 2020, published 2023).
